ChEMBL document CHEMBL5390243, “Catecholamine Derivatives: Natural Occurrence, Structural Diversity, and Biological Activity” (J Nat Prod, 2023)
pEC50, pIC50: −log10 of the molar value. One block for each compound: values may come before it.

What was measured:
Acetylcholinesterase [1] = molecular target: T1, Acetylcholinesterase (Homo sapiens, UniProt P22303); test: Inhibition of human AchE using acetylthiocholine iodide as substrate incubated for 20 mins by Ellman's assay; conditions: read-out: EC50 (the source's name)
RAW264.7 [2] = test: Anti-inflammatory activity against mouse RAW264.7 cells assessed as inhibition of LPS-induced NO production at 100 ng/ml pretreated with compound for 2 hrs followed by LPS stimulation and measured after 24 hrs by Griess reagent based analysis; assay type: functional; design: scale not given: the % may be the effect or the level left; conditions: time 26 hrs
RAW264.7 [3] = test: Antiinflammatory activity against LPS-induced mouse RAW264.7 cells assessed as reduction in IL-6 mRNA expression at 10 uM by RT-PCR analysis; assay type: functional; design: scale not given: the % may be the effect or the level left
[4] = molecular target: Glycogen synthase kinase-3 beta (Homo sapiens, UniProt P49841); test: Inhibition of N-terminal His6-tagged human recombinant GSK3beta expressed in baculovirus-infected Sf21 cells incubated for 60 mins in presence of ATP by ADP-glo analysis
[5] = molecular target: Casein kinase I isoform delta (Homo sapiens, UniProt P48730); test: Inhibition of N-terminal GST-tagged human recombinant CK1delta (1 to 294 residues) expressed in Escherichia coli incubated for 60 mins in presence of ATP by Kinase-glo luminescent assay
[6] = molecular target: Cyclin-dependent kinase 5/CDK5 activator 1 (Homo sapiens, UniProt Q00535); test: Inhibition of N-terminal full length human recombinant CDK5/p25 expressed in baculovirus-infected Sf21 cells incubated for 60 mins in presence of ATP by kinase-glo luminescent assay
[7] = molecular target: Beta-1 adrenergic receptor (Homo sapiens) (UniProt P08588); test: Agonist activity at ARbeta1 (unknown origin) expressed in CHO-K1 cells co-expressing G alpha 15 assessed as inhibition of isoproterenol induced calcium response upto 100 uM incubated for 10 mins by calcium mobilization assay relative to control; assay type: functional, cell-based; design: Activity: scale not given: the % may be the effect or the level left
RAW264.7 [8] = test: Antiinflammatory activity in LPS-induced mouse RAW264.7 cells assessed as reduction in COX-2 level at 100 uM pretreated for 1 hr followed by LPS stimulation and measured after 48 hrs by ELISA relative to control; assay type: functional; design: scale not given: the % may be the effect or the level left; conditions: time 49 hrs
[9] = Metal chelating activity assessed as iron chelation by CAS assay
[10] = Immunosuppressive activity in Kunming mouse splenocyte assessed as reduction in ConA-stimulated T-lymphocytes proliferation at 20 uM incubated for 72 hrs by CCK-8 assay relative to control; assay type: functional, T-cell; design: scale not given: the % may be the effect or the level left
SGC-7901 = test: Cytotoxicity against human SGC-7901 cells assessed as reduction in cell viability measured after 72 hrs by MTT assay; assay type: functional, cell-based; conditions: SGC-7901, 72 h
HeLa = test: Cytotoxicity against human HeLa cells assessed as reduction in cell viability measured after 24 hrs by MTT assay; assay type: functional, cell-based
[11] = Antioxidant activity assessed as DPPH radical scavenging activity; assay type: functional
RAW264.7 [12] = test: Anti-inflammatory activity against mouse RAW264.7 cells assessed as inhibition of LPS-induced NO production at 10 uM preincubated with compound for 2 hrs followed by LPS stimulation and measured after 24 hrs by Griess reagent based analysis; assay type: functional, cell-based
Acetylcholinesterase [13] = molecular target: T1, Acetylcholinesterase; test: Inhibition of Acetylcholinesterase (unknown origin) using acetylthiocholine iodide as substrate incubated for 20 mins by Ellaman's method
RAW264.7 [14] = test: Anti-inflammatory activity against mouse RAW264.7 cells assessed as inhibition of LPS-induced nitric oxide production at 50 uM preincubated for 2 hrs with compound followed by LPS-stimulation and measured after 24 hrs by Griess reagent based analysis; assay type: functional, cell-based

Chain of Casein kinase I isoform delta (P48730 whole entry, the tested form may be a part, canonical isoform): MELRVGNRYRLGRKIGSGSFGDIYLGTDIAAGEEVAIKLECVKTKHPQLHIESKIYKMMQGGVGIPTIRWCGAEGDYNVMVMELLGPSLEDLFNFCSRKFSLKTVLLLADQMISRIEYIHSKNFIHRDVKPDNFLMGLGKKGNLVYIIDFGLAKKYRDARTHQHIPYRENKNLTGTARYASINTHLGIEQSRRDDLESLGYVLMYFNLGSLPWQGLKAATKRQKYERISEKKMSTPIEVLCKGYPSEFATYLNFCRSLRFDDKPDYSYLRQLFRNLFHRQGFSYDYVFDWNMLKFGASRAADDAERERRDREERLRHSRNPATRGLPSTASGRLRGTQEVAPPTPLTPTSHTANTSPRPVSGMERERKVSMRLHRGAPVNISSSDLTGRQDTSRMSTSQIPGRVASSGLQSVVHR
T1 sequence (P22303 whole entry): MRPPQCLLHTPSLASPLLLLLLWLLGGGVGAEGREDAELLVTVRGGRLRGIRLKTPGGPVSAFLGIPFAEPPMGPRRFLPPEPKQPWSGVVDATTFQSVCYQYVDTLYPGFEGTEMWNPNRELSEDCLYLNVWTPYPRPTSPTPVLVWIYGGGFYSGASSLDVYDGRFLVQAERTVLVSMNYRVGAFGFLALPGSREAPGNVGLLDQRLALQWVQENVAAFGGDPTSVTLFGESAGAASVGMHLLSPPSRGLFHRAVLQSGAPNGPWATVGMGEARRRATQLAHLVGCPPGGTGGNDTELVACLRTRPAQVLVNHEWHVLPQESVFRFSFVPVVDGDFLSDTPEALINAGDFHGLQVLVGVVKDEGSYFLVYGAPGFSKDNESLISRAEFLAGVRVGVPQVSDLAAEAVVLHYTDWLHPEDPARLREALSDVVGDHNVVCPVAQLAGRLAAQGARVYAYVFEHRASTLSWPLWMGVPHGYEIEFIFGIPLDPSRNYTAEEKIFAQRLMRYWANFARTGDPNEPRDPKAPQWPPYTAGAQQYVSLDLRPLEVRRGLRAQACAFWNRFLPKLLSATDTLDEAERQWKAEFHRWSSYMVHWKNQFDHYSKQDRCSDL
Chain of Glycogen synthase kinase-3 beta (P49841 whole entry, the tested form may be a part, canonical isoform): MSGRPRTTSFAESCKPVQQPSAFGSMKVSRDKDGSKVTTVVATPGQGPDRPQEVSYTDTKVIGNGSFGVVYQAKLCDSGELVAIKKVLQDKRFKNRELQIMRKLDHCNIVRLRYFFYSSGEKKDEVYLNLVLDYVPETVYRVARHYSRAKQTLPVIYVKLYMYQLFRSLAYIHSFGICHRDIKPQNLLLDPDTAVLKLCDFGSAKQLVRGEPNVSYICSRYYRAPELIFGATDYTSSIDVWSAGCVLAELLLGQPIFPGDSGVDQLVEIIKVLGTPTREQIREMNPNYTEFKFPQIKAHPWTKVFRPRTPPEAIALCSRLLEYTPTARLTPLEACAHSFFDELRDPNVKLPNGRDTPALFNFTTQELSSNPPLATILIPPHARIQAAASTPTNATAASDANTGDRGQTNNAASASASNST
Chain of Cyclin-dependent kinase 5/CDK5 activator 1 (Q00535 whole entry): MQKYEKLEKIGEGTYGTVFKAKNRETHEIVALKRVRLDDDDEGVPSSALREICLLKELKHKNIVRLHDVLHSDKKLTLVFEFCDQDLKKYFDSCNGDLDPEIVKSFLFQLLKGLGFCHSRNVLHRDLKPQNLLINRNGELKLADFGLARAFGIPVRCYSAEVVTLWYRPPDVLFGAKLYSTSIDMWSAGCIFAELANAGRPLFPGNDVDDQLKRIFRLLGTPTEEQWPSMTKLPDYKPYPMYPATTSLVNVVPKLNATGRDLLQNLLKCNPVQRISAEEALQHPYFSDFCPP
Chain of Cyclin-dependent kinase 5/CDK5 activator 1 (Q15078 whole entry, further chain): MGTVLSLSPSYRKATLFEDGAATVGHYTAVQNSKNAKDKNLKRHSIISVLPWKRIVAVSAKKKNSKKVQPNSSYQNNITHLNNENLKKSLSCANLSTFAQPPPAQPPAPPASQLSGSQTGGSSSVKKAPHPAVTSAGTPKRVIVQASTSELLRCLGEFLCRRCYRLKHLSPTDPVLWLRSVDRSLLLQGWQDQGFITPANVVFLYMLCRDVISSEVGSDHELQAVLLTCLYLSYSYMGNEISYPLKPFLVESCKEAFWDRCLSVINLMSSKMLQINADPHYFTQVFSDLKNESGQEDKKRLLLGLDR
Chain of Beta-1 adrenergic receptor (Homo sapiens) (P08588 whole entry, looked up): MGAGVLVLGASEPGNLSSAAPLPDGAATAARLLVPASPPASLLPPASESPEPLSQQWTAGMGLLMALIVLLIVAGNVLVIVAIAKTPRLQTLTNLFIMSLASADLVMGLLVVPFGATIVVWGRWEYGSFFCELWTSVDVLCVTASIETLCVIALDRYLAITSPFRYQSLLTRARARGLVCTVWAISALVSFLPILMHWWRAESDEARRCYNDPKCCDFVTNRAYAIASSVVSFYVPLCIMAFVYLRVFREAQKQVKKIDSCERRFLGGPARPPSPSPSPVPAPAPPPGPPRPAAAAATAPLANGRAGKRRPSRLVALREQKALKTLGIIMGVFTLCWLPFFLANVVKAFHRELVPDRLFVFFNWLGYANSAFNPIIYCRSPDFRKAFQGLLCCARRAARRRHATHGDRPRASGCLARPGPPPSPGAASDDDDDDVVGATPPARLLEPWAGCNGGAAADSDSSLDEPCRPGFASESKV

pIC50 [4]: 6.10 | pIC50 [5]: 5.82 | pIC50 [6]: 5.59
Structure (SMILES): O=c1oc2cc(O)c(O)cc2c2c(-c3ccc(O)c(O)c3)cn(CCc3ccc(O)c(O)c3)c12

pIC50 [4]: > 6.30 | pIC50 [5]: > 5.85 | pIC50 [6]: > 5.62
Structure (SMILES): O=C1C(c2ccc(O)c(O)c2)=c2c(c3c(n2CCc2ccc(O)c(O)c2)=C(c2ccc(O)c(O)c2)C(=O)c2c-3ccc(O)c2O)-c2cc(O)c(O)cc21

pEC50 [9]: 4.55
Structure (SMILES): NC[C@H](CCCCNC(=O)c1cccc(O)c1O)N1C(=O)c2c(ccc(O)c2O)[C@@H](c2ccccc2)[C@]1(O)C(=O)O

pEC50 [9]: 4.52
Structure (SMILES): NC[C@H](CCCCNC(=O)c1cccc(O)c1O)N1C(=O)c2c(ccc(O)c2O)[C@@H](c2c[nH]c3ccccc23)[C@]1(O)C(=O)O

pEC50 [9]: 4.42
Structure (SMILES): NC[C@H](CCCCNC(=O)c1cccc(O)c1O)N1C(=O)c2c(ccc(O)c2O)[C@@H](c2ccc(O)cc2)[C@]1(O)C(=O)O

pIC50 [4]: > 6.70 | pIC50 [5]: > 6.52 | pIC50 [6]: > 6.30
Structure (SMILES): O=C1C(c2ccc(O)c(O)c2)=c2c(c3c(n2CCc2ccc(O)c(O)c2)=C(c2ccc(O)c(O)c2)C(=O)c2cc(O)c(O)cc2-3)-c2cc(O)c(O)cc21

pIC50 [4]: 5.52 | pIC50 [5]: < 5.00 | pIC50 [6]: 5.96
Structure (SMILES): COc1cc2c(cc1O)CCn1c-2c(-c2ccc(O)c(O)c2)c2c3cc(O)c(OC)cc3oc(=O)c21

pIC50 (RAW264.7 [14]): 4.27
Structure (SMILES): O=C(O)[C@@H]1Cc2cc(O)c(O[C@@H]3O[C@H](CO[C@@H]4O[C@H](CO)[C@@H](O)[C@H](O)[C@H]4O)[C@@H](O)[C@H](O)[C@H]3O)cc2N1C(=O)/C=C/c1ccc(O[C@@H]2O[C@H](CO)[C@@H](O)[C@H](O)[C@H]2O)cc1

pIC50 [4]: > 6.70 | pIC50 [5]: > 6.70 | pIC50 [6]: > 5.82
Structure (SMILES): O=C1C(c2ccc(O)c(O)c2)=C2C(=C(c3ccc(O)c(O)c3)C(=O)N2CCc2ccc(O)c(O)c2)c2cc(O)c(O)cc21

More lines, now with the values behind:

Structure (SMILES): O=C(/C=C/c1ccc(O)cc1)n1ccc2cc(O)c(O[C@@H]3O[C@H](CO)[C@@H](O)[C@H](O)[C@H]3O)cc21
pIC50 (Acetylcholinesterase [1]): 4.23

Structure (SMILES): COc1cc(/C=C/C(=O)O[C@H]2[C@H](OC[C@H]3O[C@@H](Oc4cc5c(cc4O)C[C@@H](C(=O)O)N5C(=O)/C=C/c4ccc(O)c(O[C@@H]5O[C@H](CO)[C@@H](O)[C@H](O)[C@H]5O)c4)[C@H](O)[C@@H](O)[C@@H]3O)O[C@H](CO)[C@@H](O[C@@H]3O[C@H](COC(=O)/C=C/c4cc(OC)c(O)c(OC)c4)[C@@H](O)[C@H](O)[C@H]3O)[C@@H]2O)ccc1O
Activity (RAW264.7 [2]): 22.4% | Activity (RAW264.7 [3]): 63.2%

Structure (SMILES): CC1=NCCc2cc(O)c(O)cc21
Activity [7]: 15.9%

Structure (SMILES): CS(=O)(=O)Nc1ccc([N+](=O)[O-])cc1OC1CCCCC1 [NS-398]
Activity (RAW264.7 [8]): 97.1%

Structure (SMILES): CC(=O)NCCc1cc(O)c(O)cc1[C@H](NC(C)=O)C(=O)c1ccc(O)c(O)c1
Activity [10]: 5%

Structure (SMILES): CC(=O)O[C@H]1C(=O)[C@@]2(C)[C@H]([C@H](OC(=O)c3ccccc3)[C@]3(O)C[C@H](OC(=O)[C@H](O)[C@@H](NC(=O)c4ccccc4)c4ccccc4)C(C)=C1C3(C)C)[C@]1(OC(C)=O)CO[C@@H]1C[C@@H]2O [PACLITAXEL]
pIC50 (SGC-7901): 6.82

Structure (SMILES): Oc1cc2c(cc1O)[C@H](C1=C[C@@]3(O)CC/C=C\CCCCN4CC[C@@H]1[C@]1(C[C@@H]5/C=C\CCCCN5[C@H]13)C4)NCC2
pIC50 (HeLa): 5.24

Structure (SMILES): O=C(/C=C/c1ccc(O)cc1)n1ccc2cc(O)c(O)cc21
pEC50 [11]: 4.79 | pIC50 (Acetylcholinesterase [1]): 4.26

Structure (SMILES): C[C@@H]1C[C@H]2[C@@H]3CCC4=CC(=O)C=C[C@]4(C)[C@@]3(F)[C@@H](O)C[C@]2(C)[C@@]1(O)C(=O)CO [DEXAMETHASONE]
pIC50 (RAW264.7 [12]): 5.70

Structure (SMILES): COc1cc(/C=C/C(=O)n2ccc3cc(O)c(O)cc32)ccc1O
pEC50 [11]: 4.86 | pIC50 (Acetylcholinesterase [1]): 4.33

Structure (SMILES): COc1cc(O)c2c(c1)C(=O)c1cc(O)c(O)cc1CCN2
pIC50 (Acetylcholinesterase [13]): 4.34

Structure (SMILES): COc1cc2c(cc1O)[C@@H]1Cc3cc(O)c(O)cc3C[N@@+]1(C)CC2
pIC50 (SGC-7901): 4.07

Structure (SMILES): COc1cc(/C=C/C(=O)N2c3cc(O[C@@H]4O[C@H](CO[C@@H]5O[C@H](CO)[C@@H](O)[C@H](O)[C@H]5OC(=O)/C=C/c5cc(OC)c(O)c(OC)c5)[C@@H](O)[C@H](O)[C@H]4O)c(O)cc3C[C@H]2C(=O)O)ccc1O
Activity (RAW264.7 [2]): 38.9% | Activity (RAW264.7 [3]): 82.4%
